The nature of data set [1]: Metabolic stability in human liver microsomes. It is filed as in vitro ADME. Particulars: 1 μM compound, 0.5 mg/mL protein, projected hepatic clearance, well-stirred model. Here is the method:
Metabolic stability of compounds was evaluated in human liver microsomes (from Corning or XenoTech, LLC) using a 96-well plate assay format. Compounds were incubated at 37° C. at 1 μM final concentration in the microsomal matrix (0.5 mg/mL total protein) in the presence or absence of NADPH cofactor. An NADPH regenerating system, comprised of NADP, MgCl2, isocitric acid, and isocitrate dehydrogenase, was used in the assay. Enzymatic reactions were conducted for 0, 5, 10, 20, 30, or 60 min before termination by addition of acetonitrile containing tolbutamide and labetalol internal standards (100 ng/mL). After shaking for 10 min, plates were subjected to centrifugation (4000 rpm at 4° C.) for 20 min and supernatants were mixed 1:3 with HPLC grade water. Samples were analyzed by LC-MS/MS using appropriate MRM transitions for each analyte and internal standard (IS). Analyte/IS peak area ratios were used to determine percent compound remaining at each time point. Intrinsic clearance (Clint; expressed as mL·min^−1·mg^−1) was calculated from the first order elimination constant (k, min^−1) of test article decay and the volume of the incubation. These values were scaled to intrinsic organ clearance (Clint) using human specific scaling factors (48.8 mg microsomal protein per g liver; 25.7 g liver per kg body weight). Organ Clint was subsequently converted to hepatic clearance (CLhep, mL·min-1·kg-1) using the well-stirred model of hepatic elimination, where Qh is human hepatic blood flow (20.7 mL·min-1·kg-1).
CLhep is the projected human clearance in the liver based on the above in vitro assay. A lower value is indicative of less compound being removed by the liver.
A general note: Microsomes from liver hold many membrane-bound enzymes, among them those of drug oxidation.

The target of a further data set is LRRK2 G2019S enzyme (Homo sapiens (Human), UniProt Q5S007, G2019S). In words: LRRK2 G2019S TR-FRET biochemical assay (LRRKtide substrate). The settings on record: 134 μM ATP. The essentials: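 Kinase and LRRKtide substrate were preincubated with compound 20 minutes at 23° C, then ATP was added and the reaction ran 60 minutes at 23° C. Detection used 2 nM antibody with 10 mM EDTA in TR-FRET dilution buffer, 60 minutes at 23° C, read by TR-FRET.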
For orientation: TR-FRET usually uses a lanthanide donor and a delayed reading to cut background.

“And” between values parts separate entries of the source, which are not always exact repeats. Identical values can stand only once.

Chain of LRRK2 G2019S enzyme (Q5S007 whole entry G2019S): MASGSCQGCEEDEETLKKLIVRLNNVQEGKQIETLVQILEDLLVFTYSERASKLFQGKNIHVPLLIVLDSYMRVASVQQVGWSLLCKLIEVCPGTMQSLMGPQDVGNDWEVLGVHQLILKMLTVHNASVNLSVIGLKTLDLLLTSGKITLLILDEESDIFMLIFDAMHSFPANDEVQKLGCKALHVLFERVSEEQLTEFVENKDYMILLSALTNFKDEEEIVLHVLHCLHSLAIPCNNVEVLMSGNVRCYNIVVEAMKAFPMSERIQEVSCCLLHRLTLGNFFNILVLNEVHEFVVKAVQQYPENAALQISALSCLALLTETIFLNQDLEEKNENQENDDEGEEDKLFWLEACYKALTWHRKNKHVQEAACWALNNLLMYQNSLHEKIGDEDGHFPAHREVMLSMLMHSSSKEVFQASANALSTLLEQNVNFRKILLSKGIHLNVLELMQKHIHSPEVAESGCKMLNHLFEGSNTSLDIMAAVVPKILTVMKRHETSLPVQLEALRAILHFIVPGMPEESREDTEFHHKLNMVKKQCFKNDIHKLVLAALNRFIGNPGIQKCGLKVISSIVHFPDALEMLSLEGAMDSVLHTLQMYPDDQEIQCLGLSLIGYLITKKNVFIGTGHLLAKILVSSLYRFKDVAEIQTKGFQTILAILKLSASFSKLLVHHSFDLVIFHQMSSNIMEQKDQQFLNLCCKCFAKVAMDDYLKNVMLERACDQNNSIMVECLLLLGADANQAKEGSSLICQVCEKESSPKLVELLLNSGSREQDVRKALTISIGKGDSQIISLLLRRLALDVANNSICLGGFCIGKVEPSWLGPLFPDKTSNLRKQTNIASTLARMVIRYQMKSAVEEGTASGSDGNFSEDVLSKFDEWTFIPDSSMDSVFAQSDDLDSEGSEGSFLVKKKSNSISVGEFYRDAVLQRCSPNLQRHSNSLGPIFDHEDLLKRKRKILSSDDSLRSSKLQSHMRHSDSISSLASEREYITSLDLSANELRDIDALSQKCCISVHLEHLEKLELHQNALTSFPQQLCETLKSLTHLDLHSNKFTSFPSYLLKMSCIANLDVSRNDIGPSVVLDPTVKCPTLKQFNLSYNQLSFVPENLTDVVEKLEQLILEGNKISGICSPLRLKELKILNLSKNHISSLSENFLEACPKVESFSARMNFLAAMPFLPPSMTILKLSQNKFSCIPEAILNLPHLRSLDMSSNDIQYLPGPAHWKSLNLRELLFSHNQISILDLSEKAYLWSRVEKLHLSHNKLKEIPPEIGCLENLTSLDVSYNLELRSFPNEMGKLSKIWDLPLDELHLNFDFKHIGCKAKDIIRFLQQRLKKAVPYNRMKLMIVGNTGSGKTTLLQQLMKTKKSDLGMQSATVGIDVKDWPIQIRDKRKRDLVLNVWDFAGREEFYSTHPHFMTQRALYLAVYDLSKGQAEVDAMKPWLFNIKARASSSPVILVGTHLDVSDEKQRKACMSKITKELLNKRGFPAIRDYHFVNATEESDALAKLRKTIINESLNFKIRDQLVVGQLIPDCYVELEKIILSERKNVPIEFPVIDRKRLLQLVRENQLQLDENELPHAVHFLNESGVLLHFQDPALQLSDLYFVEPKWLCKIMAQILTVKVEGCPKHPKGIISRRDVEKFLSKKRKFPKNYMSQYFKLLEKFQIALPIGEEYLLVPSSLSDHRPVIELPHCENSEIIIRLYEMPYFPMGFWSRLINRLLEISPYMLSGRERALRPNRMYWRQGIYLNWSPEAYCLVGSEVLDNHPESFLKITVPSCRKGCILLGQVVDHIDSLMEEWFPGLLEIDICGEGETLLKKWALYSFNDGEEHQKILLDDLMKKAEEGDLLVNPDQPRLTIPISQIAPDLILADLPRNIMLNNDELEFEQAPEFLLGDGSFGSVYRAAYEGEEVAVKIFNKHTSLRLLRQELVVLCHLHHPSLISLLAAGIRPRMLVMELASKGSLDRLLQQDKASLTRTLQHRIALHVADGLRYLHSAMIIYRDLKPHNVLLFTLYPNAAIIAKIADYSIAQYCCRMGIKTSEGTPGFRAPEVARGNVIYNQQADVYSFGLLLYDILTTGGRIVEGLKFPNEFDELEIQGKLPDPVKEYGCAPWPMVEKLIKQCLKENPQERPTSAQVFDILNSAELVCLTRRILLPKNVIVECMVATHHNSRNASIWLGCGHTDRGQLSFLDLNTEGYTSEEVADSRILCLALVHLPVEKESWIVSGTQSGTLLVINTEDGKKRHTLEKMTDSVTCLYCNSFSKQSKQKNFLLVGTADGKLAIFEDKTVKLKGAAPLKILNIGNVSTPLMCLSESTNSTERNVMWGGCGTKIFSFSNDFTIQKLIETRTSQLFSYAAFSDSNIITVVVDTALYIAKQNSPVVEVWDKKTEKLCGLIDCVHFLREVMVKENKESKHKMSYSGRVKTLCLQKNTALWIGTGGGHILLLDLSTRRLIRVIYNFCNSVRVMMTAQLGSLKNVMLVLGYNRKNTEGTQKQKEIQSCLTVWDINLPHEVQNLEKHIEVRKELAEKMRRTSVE

Broadly, the IC50 is the concentration that gives 50% inhibition. As to `CCNc1nc(Nc2cc(C(C)(C)C#N)nn2C2CC2)ncc1Br` [Compound 141], in data set [1], the “Human liver microsomes CLhep” value is 13.508 mL/min/kg. The IC50 on LRRK2 G2019S enzyme was < 30 nM and 3.94 nM.
Consider `CCNc1nc(Nc2cn(C3(C)CCOC3=O)nc2C2CC2)ncc1C(F)(F)F` (single isomer, unassigned) [Compound 104], for which the “Human liver microsomes CLhep” value in data set [1] is recorded as 11.59 mL/min/kg. On LRRK2 G2019S enzyme, the IC50 is < 30 nM and 0.96 nM.
With `CCNc1nc(Nc2cc(C3(C)CCOC3=O)nn2C2CC2)ncc1C(F)(F)F` (single isomer, unassigned) [Compound 143], the “Human liver microsomes CLhep” value in data set [1] was 7.81 mL/min/kg. In addition, the IC50 against LRRK2 G2019S enzyme was < 30 nM and 1.21 nM.
Regarding `CCNc1nc(Nc2cc(C(C)(C)C#N)nn2C2CC2)ncc1C(F)(F)F` [Compound 131], in data set [1], the “Human liver microsomes CLhep” value is 2.237 mL/min/kg. Further, at LRRK2 G2019S enzyme, the IC50 is < 30 nM and 4.98 nM.
Turning to `CCNc1nc(Nc2cn(C3(C)CCOC3=O)nc2C2CC2)ncc1Br` (single isomer, unassigned) [Compound 114], the “Human liver microsomes CLhep” value in data set [1] was determined as 16.508 mL/min/kg. The IC50 on LRRK2 G2019S enzyme was < 30 nM and 1.05 nM.
On to `CCNc1nc(Nc2cc(C3(C)CCOC3=O)nn2C2CC2)ncc1Br` (single isomer, unassigned) [Compound 150], for which the “Human liver microsomes CLhep” value in data set [1] came out at 11.077 mL/min/kg. Moreover, the half-inhibitory concentration (IC50) against LRRK2 G2019S enzyme is < 30 nM and 1.22 nM.
In the case of `CNc1nc(Nc2cn(C3(C)CCOC3=O)nc2C2CC2)ncc1C(F)(F)F` (single isomer, unassigned) [Compound 122], the “Human liver microsomes CLhep” value in data set [1] was 9.856 mL/min/kg. Further, the IC50 against LRRK2 G2019S enzyme is < 30 nM and 0.72 nM.
`CNc1nc(Nc2cc(C3(C)CCOC3=O)nn2C2CC2)ncc1C(F)(F)F` (single isomer, unassigned) [Compound 155]: the “Human liver microsomes CLhep” value in data set [1] worked out at 5.519 mL/min/kg. Also, the IC50 on LRRK2 G2019S enzyme is < 30 nM and 1.95 nM.
On LRRK2 G2019S enzyme, `CCNc1nc(Nc2cn(C3CS(=O)(=O)C3)nc2C2CC2)ncc1C(F)(F)F` [Compound 110, N2-[3-cyclopropyl-1-(1,1-dioxothietan-3-yl)pyrazol-4-yl]-N4-ethyl-5-(trifluoromethyl)pyrimidine-2,4-diamine] returned an IC50 of less than 30 nM.
The same measure, in the same setting: the same measure for `CCNc1nc(Nc2ccnn2[C@H]2C[C@@H](n3ccnn3)C2)ncc1C(F)(F)F` [Compound 189]: 30 to 60 nM.
Still for that read-out and setting: in the case of `CCNc1nc(Nc2cn(C3(CF)CCOC3=O)nc2C)ncc1C(F)(F)F` (single isomer, unassigned) [Compound 217] it was less than 30 nM; in that of `[2H]C([2H])([2H])n1nc(C2(C)CCOC2=O)cc1Nc1ncc(C(F)(F)F)c(NCC)n1` (stereo not shown) [Compound 173], less than 30 nM.
The same measure, in the same setting: the same measure for `CCNc1nc(Nc2ccnn2[C@H]2C[C@@H](n3nccn3)C2)ncc1C(F)(F)F` [Compound 188]: 30 to 60 nM; for `CCNc1nc(Nc2cn(C3(C)CCOC3=O)nc2C2CC2)ncc1C(F)(F)F` (stereo not shown) [Compound 108]: less than 30 nM; for `[2H]C([2H])([2H])n1nc(C(C)(C)n2cccn2)cc1Nc1ncc(C(F)(F)F)c(NCC)n1` [Compound 70]: less than 30 nM.
Regarding `COc1nc(Nc2cn(C3(C)CCOC3=O)nc2C)ncc1Br` (single isomer, unassigned) [Compound 90], the IC50 against LRRK2 G2019S enzyme is less than 30 nM.
The same measure, in the same setting: the same measure for `[2H]C([2H])([2H])n1nc(Nc2ncc(C(F)(F)F)c(NCC)n2)cc1C(C)(C)c1ncco1` [Compound 83]: less than 30 nM; for `CCNc1nc(Nc2cn(C3CS(=O)(=O)C3)nc2C2CC2)ncc1Br` [Compound 96]: less than 30 nM; for `[2H]C([2H])([2H])n1nc([C@]23C[C@H]2COC3=O)cc1Nc1ncc(C(F)(F)F)c(NCC)n1` [Compound 185]: less than 30 nM.
Still for that read-out and setting: in the case of `CCNc1nc(Nc2cn(S(C)(=O)=O)nc2C2CC2)ncc1Br` [Compound 111] it was less than 30 nM; in that of `CCNc1nc(Nc2cn(C(C)(C)c3ccn(C)n3)nc2C)ncc1C(F)(F)F` [Compound 18], less than 30 nM; in that of `[2H]C([2H])([2H])C([2H])([2H])Nc1nc(Nc2cn(C(C)(C)C#N)nc2C)ncc1C(F)(F)F` [Compound 89], less than 30 nM.
Still for that read-out and setting: in the case of `CNc1nc(Nc2cnn(C3CN(C4COC4)CCC3(F)F)c2Cl)ncc1C(F)(F)F` (single isomer, unassigned) [Compound 28] it was less than 30 nM; in that of `[2H]C([2H])([2H])n1nc(C(C)(C)n2nccn2)cc1Nc1ncc(Br)c(NCC)n1` [Compound 75], less than 30 nM; in that of `Cc1nn(C2(C)CCOC2=O)cc1Nc1ncc(C(F)(F)F)c(C2CC2)n1` (single isomer, unassigned) [Compound 120], less than 30 nM.
At LRRK2 G2019S enzyme, `[2H]C([2H])([2H])Nc1nc(Nc2cn(C(C)(C)C#N)nc2C)ncc1C(F)(F)F` [Compound 67] yielded an IC50 of less than 30 nM.
On the same count and under the same terms, the same measure for `CNc1nc(Nc2cnn3c2CC2(COC2)C3)ncc1C(F)(F)F` [Compound 16]: less than 30 nM.
The same measure, in the same setting: the same measure for `Cc1nn(C(C)(C)C#N)cc1Nc1ncc(C(F)(F)F)c(NC(CF)CF)n1` [Compound 76]: less than 30 nM; for `COc1nc(Nc2cn(Cc3cc[nH]n3)nc2C2CC2)ncc1Br` [Compound 95]: less than 30 nM.
On the same count and under the same terms, the same measure for `CCNc1nc(Nc2cc([C@H]3C[C@@H]3C#N)nn2C2CC2)ncc1C(F)(F)F` [Compound 152]: less than 30 nM; for `[2H]C([2H])([2H])n1nc(C(C)(C)n2nccn2)cc1Nc1ncc(Br)c(OC2CC2)n1` [Compound 81]: less than 30 nM; for `CCNc1nc(Nc2cc([C@]34C[C@H]3COC4=O)nn2C2CC2)ncc1C(F)(F)F` [Compound 165]: less than 30 nM.
`CNc1nc(Nc2cn(C3C[C@@H]4[C@H](C3)C4(F)F)nc2Cl)ncc1C(F)(F)F` (stereo partly shown) [Compound 10] had an IC50 at LRRK2 G2019S enzyme greater than 60 nM.
The same measure, in the same setting: the same measure for `N#C[C@@H]1CC1n1cc(Nc2ncc(C(F)(F)F)c(NCC(F)F)n2)c(C2CC2)n1` (single isomer, unassigned) [Compound 211]: less than 30 nM; for `CCNc1nc(Nc2cnn([C@H]3C[C@H](n4nccn4)C3)c2C2CC2)ncc1C(F)(F)F` [Compound 97]: less than 30 nM; for `CNc1nc(Nc2cn(C3CC3)nc2[C@H]2C[C@@H](n3nccn3)C2)ncc1C(F)(F)F` [Compound 199]: 30 to 60 nM.
Still for that read-out and setting: in the case of `CNc1nc(Nc2cn(C(C)(C)c3ccn(C)n3)nc2C)ncc1C(F)(F)F` [Compound 15] it was less than 30 nM.
Still for that read-out and setting: the same measure for `CNc1nc(Nc2cnn3c2CC2(CC2)C3)ncc1C(F)(F)F` [Compound 8]: less than 30 nM; for `CCNc1nc(Nc2cc(C#N)nn2C2CC2)ncc1C(F)(F)F` [Compound 133]: greater than 60 nM.
In the case of `CCNc1nc(Nc2cn(C(C)(C)C#N)nc2C)ncc1Br` [Compound 43], on LRRK2 G2019S enzyme, the IC50 was less than 30 nM.
For `CCNc1nc(Nc2cn(C(C)(C)C#N)nc2C2CC2)ncc1Br` [Compound 93], in data set [1], the “Human liver microsomes CLhep” value turned out to be 17.663 mL/min/kg. Moreover, at LRRK2 G2019S enzyme, the 50% inhibitory concentration (IC50) is < 30 nM and 1.87 nM.
As to `CCNc1nc(Nc2cn(C3(C)CCOC3=O)nc2C)ncc1C(F)(F)F` (single isomer, unassigned) [Compound 100], at LRRK2 G2019S enzyme, the IC50 is less than 30 nM.
On LRRK2 G2019S enzyme, `CNc1nc(Nc2cn(C3C[C@@H]4[C@H](C3)C4(F)F)nc2C)ncc1C(F)(F)F` (stereo partly shown) [Compound 12] returned an IC50 of less than 30 nM.
On the same count and under the same terms, in the case of `CCNc1nc(Nc2cc(C(C)(C)n3nccn3)nn2C2CC2)ncc1Br` [Compound 126] it was less than 30 nM.
On the same count and under the same terms, in the case of `CCNc1nc(Nc2ccnn2[C@H]2C[C@H](n3ccnn3)C2)ncc1C(F)(F)F` [Compound 183, N2-(1-((1R,3R)-3-(1H-1,2,3-triazol-1-yl)cyclobutyl)-1H-pyrazol-5-yl)-N4-ethyl-5-(trifluoromethyl)pyrimidine-2,4-diamine] it was less than 30 nM; in that of `CCNc1nc(Nc2cn(C3C[C@H]3C#N)nc2C2CC2)ncc1Br` (single isomer, unassigned) [Compound 215], less than 30 nM.

(Values after patent US9932325B2 (Denali Therapeutics Inc., priority 2015, dated 2018).)
